Results as given in US20230061736A1, “GPR119 AGONISTS” (Kallyope, Inc., priority 2019, published 2023).

Molecular target: T1, human GPR119 (hGPR119) (Homo sapiens, UniProt Q8TDV5)
T1 construct: expressed in transfected cells
T1 sequence (Q8TDV5 1-335): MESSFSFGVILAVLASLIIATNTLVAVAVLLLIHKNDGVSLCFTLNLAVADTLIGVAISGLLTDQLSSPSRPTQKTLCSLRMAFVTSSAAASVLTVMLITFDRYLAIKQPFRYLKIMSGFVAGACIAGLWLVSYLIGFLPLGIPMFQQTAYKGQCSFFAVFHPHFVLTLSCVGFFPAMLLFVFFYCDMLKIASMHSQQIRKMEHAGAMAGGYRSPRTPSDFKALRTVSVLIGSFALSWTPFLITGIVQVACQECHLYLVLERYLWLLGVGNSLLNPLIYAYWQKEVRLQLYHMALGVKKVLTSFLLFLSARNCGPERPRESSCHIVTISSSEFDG
Test: cAMP accumulation assay (cAMP Gs dynamic HTRF kit)
Assay type: cell-based
Conditions: CHO-K1 cells stably expressing hGPR119, 4-parameter fit; for Emax: 1 h, % activity normalized to Max/Min controls; for EC50: cAMP accumulation
Description: CHO-K1 cells stably expressing human GPR119 (hGPR119) were prepared by transfection of a GPR119-carrying plasmid using Lipofectamine 2000 (following manufacturer instructions). A stable cell line was established using the limiting dilution method with geneticine selection. Assay-ready frozen (ARF) cells were prepared and used throughout the study.
The assay was performed in a 384-well plate format using the cAMP Gs dynamic assay kit from Cisbio. ARF cells expressing hGPR119 were thawed, washed and then resuspended in cAMP stimulation buffer at a cell density of 1.1×10^6 cells/mL. Cells were plated at a density of ˜10,000 cells/well (9 μL/well). Dose response curves for the tested compounds were prepared in a cAMP stimulation buffer, containing 0.1% Tween 80 at 4 fold the final concentration. The compounds were then transferred to the cell plates using BRAVO (3 μL/well) and the plates were incubated for 60 minutes at 37° C./5% CO2. Detection buffer (10 μL, prepared as described in the cAMP Gs dynamic kit) were added to each well, and the plates were incubated at ambient temperature for 1 hr.
RT-FRET was measured using a ClarioSTAR plate reader, calculating the ratio between emissions at 665 nm and 620 nm (HTRF ratio). The HTRF ratio for positive (Max) and negative (Min) controls were used to normalize HTRF data and generate values for % activity. EC50 and Max activity values were determined using a standard 4-parameter fit.

Q: Which Emax does the source give for `COCc1cnc(N2CCC([C@H]3C[C@H]3CCOc3ccc(CC(=O)N4CC(CNC[C@H](O)[C@@H](O)[C@H](O)[C@H](O)CO)C4)c(F)c3)CC2)nc1` (mixture of isomers) [Example 97, 2-[2-fluoro-4-[2-[rac-(1S,2R)-2-[1-[5-(methoxymethyl)pyrimidin-2-yl]-4-piperidyl]cyclopropyl]ethoxy]phenyl]-1-[3-[[[(2S,3R,4R,5R)-2,3,4,5,6-pentahydroxyhexyl]amino]methyl]azetidin-1-yl]ethanone] here?
A: Its Emax is 100 to 130%.

Q: And the EC50?
A: Its EC50 is 100 to 1000 nM.

Q: Which Emax does the source give for `O=C(Cc1ccc(OCCCC2CCN(c3ncc(Cl)cn3)CC2)cc1F)NCCO[C@H]1O[C@H](CO)[C@@H](O)[C@H](O)[C@@H]1O` (racemic) [Example 16, 2-[4-[3-[1-(5-chloropyrimidin-2-yl)-4-piperidyl]propoxy]-2-fluoro-phenyl]-N-[2-[rac-(2S,3S,4S,5S,6R)-3,4,5-trihydroxy-6-(hydroxymethyl)tetrahydropyran-2-yl]oxyethyl]acetamide] here?
A: Its Emax is 100 to 130%.

Q: What about the EC50 of the same compound?
A: The EC50 was 100 to 1000 nM.

Q: `O=C(NCCO[C@H]1O[C@H](CO)[C@@H](O)[C@H](O)[C@@H]1O)C1CN(C(=O)Cc2ccc(OCCCC3CCN(c4ncc(Cl)cn4)CC3)cc2F)C1` (racemic) [Example 31, 1-[2-[4-[3-[1-(5-chloropyrimidin-2-yl)-4-piperidyl]propoxy]-2-fluoro-phenyl]acetyl]-N-[2-[rac-(2S,3S,4S,5S,6R)-3,4,5-trihydroxy-6-(hydroxymethyl)tetrahydropyran-2-yl]oxyethyl]azetidine-3-carboxamide] was tested. Which Emax did it give?
A: Its Emax is 100 to 130%.

Q: And the EC50?
A: Its EC50 is 100 to 1000 nM.

Q: With `COCc1cnc(N2CCC(CCCOc3ccc(CC(=O)N4CC(C(=O)NC[C@H](O)[C@@H](O)[C@H](O)[C@H](O)CO)C4)c(F)c3)CC2)nc1` (racemic) [Example 39, 1-[2-[2-fluoro-4-[3-[1-[5-(methoxymethyl)pyrimidin-2-yl]-4-piperidyl]propoxy]phenyl]acetyl]-N-[rac-(2S,3R,4R,5R)-2,3,4,5,6-pentahydroxyhexyl]azetidine-3-carboxamide] as the compound, how does the Emax read?
A: The Emax was 100 to 130%.

Q: What about the EC50 of the same compound?
A: The EC50 was 100 to 1000 nM.

Q: What does the source list for `O=C(Cc1ccc(OCCCC2CCN(c3ncc(Cl)cn3)CC2)cc1F)N1CC(CN[C@@H]2C[C@H](O)[C@@H](O)[C@H]2O)C1` (racemic) [Example 49, 2-[4-[3-[1-(5-chloropyrimidin-2-yl)-4-piperidyl]propoxy]-2-fluoro-phenyl]-1-[3-[[[rac-(1R,2S,3R,4S)-2,3,4-trihydroxycyclopentyl]amino]methyl]azetidin-1-yl]ethanone]?
A: Emax: ≥ 130%; EC50: 100 to 1000 nM

Q: For `COc1cnc(N2CCC(CCCOc3ccc(CC(=O)N4CC(CNC[C@H](O)[C@@H](O)[C@H](O)[C@H](O)CO)C4)c(F)c3)CC2)nc1` (racemic) [Example 79, 2-[2-fluoro-4-[3-[1-(5-methoxypyrimidin-2-yl)-4-piperidyl]propoxy]phenyl]-1-[3-[[[rac-(2S,3R,4R,5R)-2,3,4,5,6-pentahydroxyhexyl]amino]methyl]azetidin-1-yl]ethanone], which Emax is on record?
A: Its Emax is 100 to 130%.

Q: And the EC50?
A: The EC50 was 100 to 1000 nM.

Q: What does the source list for `CCOc1cnc(N2CCC(CCCOc3ccc(CC(=O)N4CC(CNC[C@H](O)[C@@H](O)[C@H](O)[C@H](O)CO)C4)c(F)c3)CC2)nc1` (racemic) [Example 80, 2-[4-[3-[1-(5-ethoxypyrimidin-2-yl)-4-piperidyl]propoxy]-2-fluoro-phenyl]-1-[3-[[[rac-(2S,3R,4R,5R)-2,3,4,5,6-pentahydroxyhexyl]amino]methyl]azetidin-1-yl]ethanone]?
A: Emax: 100 to 130%; EC50: 100 to 1000 nM

Q: With `COCc1cnc(N2CCC(CCCCOc3ccc(CC(=O)N4CC(CNC[C@H](O)[C@@H](O)[C@H](O)[C@H](O)CO)C4)c(F)c3)CC2)nc1` (racemic) [Example 84, 2-[2-fluoro-4-[4-[1-[5-(methoxymethyl)pyrimidin-2-yl]-4-piperidyl]butoxy]phenyl]-1-[3-[[[rac-(2S,3R,4R,5R)-2,3,4,5,6-pentahydroxyhexyl]amino]methyl]azetidin-1-yl]ethanone] as the compound, how does the Emax read?
A: Its Emax is 100 to 130%.

Q: What about the EC50 of the same compound?
A: The EC50 was 100 to 1000 nM.

Q: Which Emax does the source give for `COCc1cnc(N2CCC(CCCCOc3cc(F)c(CC(=O)N4CC(CNC[C@H](O)[C@@H](O)[C@H](O)[C@H](O)CO)C4)c(F)c3)CC2)nc1` (racemic) [Example 85, 2-[2,6-difluoro-4-[4-[1-[5-(methoxymethyl)pyrimidin-2-yl]-4-piperidyl]butoxy]phenyl]-1-[3-[[[rac-(2S,3R,4R,5R)-2,3,4,5,6-pentahydroxyhexyl]amino]methyl]azetidin-1-yl]ethanone] here?
A: The Emax was 100 to 130%.

Q: What about the EC50 of the same compound?
A: The EC50 was 100 to 1000 nM.

Q: What does the source list for `O=C(OCCC1CCN(c2ncc(Cl)cn2)CC1)c1ccc(CC(=O)N2CC(CNC[C@H](O)[C@@H](O)[C@H](O)[C@H](O)CO)C2)c(F)c1` (racemic) [Example 91, 2-[1-(5-chloropyrimidin-2-yl)-4-piperidyl]ethyl 3-fluoro-4-[2-oxo-2-[3-[[[rac-(2S,3R,4R,5R)-2,3,4,5,6-pentahydroxyhexyl]amino]methyl]azetidin-1-yl]ethyl]benzoate]?
A: Emax: 100 to 130%; EC50: 1000 to 10000 nM

Q: Which Emax does the source give for `O=C(Cc1ccc(CC(=O)N2CC(CNC[C@H](O)[C@@H](O)[C@H](O)[C@H](O)CO)C2)c(F)c1)OCCC1CCN(c2ncc(Cl)cn2)CC1` (racemic) [Example 92, 2-[1-(5-chloropyrimidin-2-yl)-4-piperidyl]ethyl 2-[3-fluoro-4-[2-oxo-2-[3-[[[rac-(2S,3R,4R,5R)-2,3,4,5,6-pentahydroxyhexyl]amino]methyl]azetidin-1-yl]ethyl]phenyl]acetate] here?
A: The Emax was 100 to 130%.

Q: And the EC50?
A: Its EC50 is 100 to 1000 nM.

Q: With `O=C(OC[C@@H]1C[C@@H]1C1CCN(c2ncc(Cl)cn2)CC1)c1ccc(CC(=O)N2CC(CNC[C@H](O)[C@@H](O)[C@H](O)[C@H](O)CO)C2)c(F)c1` (racemic) [Example 95, (1R,2R)-2-[1-(5-chloropyrimidin-2-yl)-4-piperidyl]cyclopropyl]methyl 3-fluoro-4-[2-oxo-2-[3-[[[rac-(2S,3R,4R,5R)-2,3,4,5,6-pentahydroxyhexyl]amino]methyl]azetidin-1-yl]ethyl]benzoate] as the compound, how does the Emax read?
A: Its Emax is 100 to 130%.

Q: And the EC50?
A: Its EC50 is 100 to 1000 nM.

Q: How did the Emax turn out when `CC1(OC(=O)N2CCC(CCCOc3ccc(CC(=O)N4CC(CNC[C@H](O)[C@@H](O)[C@H](O)[C@H](O)CO)C4)c(F)c3)CC2)CC1` (racemic) [Example 119, (1-methylcyclopropyl) 4-[3-[3-fluoro-4-[2-oxo-2-[3-[[[rac-(2S,3R,4R,5R)-2,3,4,5,6-pentahydroxyhexyl]amino]methyl]azetidin-1-yl]ethyl]phenoxy]propyl]piperidine-1-carboxylate] was run?
A: Its Emax is 100 to 130%.

Q: What about the EC50 of the same compound?
A: The EC50 was 100 to 1000 nM.

Q: Which results are given for `O=C(Cc1ccc(OCCCC2CCN(c3ncc(Cl)cn3)CC2)cc1F)N1CC(CN2C[C@H](O)[C@@H](O)C2)C1` (stereo in doubt) [Example 46, 2-[4-[3-[1-(5-chloropyrimidin-2-yl)-4-piperidyl]propoxy]-2-fluoro-phenyl]-1-[3-[[rac-(3S,4S)-3,4-dihydroxypyrrolidin-1-yl]methyl]azetidin-1-yl]ethanone]?
A: Emax: 100 to 130%; EC50: ≤ 100 nM

Q: For `O=C(Cc1ccc(OCCCC2CCN(c3ncc(Cl)cn3)CC2)cc1F)N1CC(CN2C[C@@H](O)[C@H](O)C2)C1` (stereo in doubt) [Example 47, 2-[4-[3-[1-(5-chloropyrimidin-2-yl)-4-piperidyl]propoxy]-2-fluoro-phenyl]-1-[3-[[rac-(3R,4R)-3,4-dihydroxypyrrolidin-1-yl]methyl]azetidin-1-yl]ethanone], which Emax is on record?
A: Its Emax is 100 to 130%.

Q: What about the EC50 of the same compound?
A: The EC50 was ≤ 100 nM.
